Assay results reported in patent US20050215620A1, “Method of treating amyloid beta precursor disorders” (Andrx Labs, LLC, priority 1999, published 2005).

What was measured:
[1] = system: Aβ peptides; assay: Extracellular and intracellular [35S]-labeled Aβ peptides in APP-expressing H4, MDCK and CHO cells (pulse-chase, immunoprecipitation, autoradiography); type: cell-based, human; canine; Chinese hamster (cells expressing human APP)
Description: (§1) The three cell lines utilized were: Chinese Hamster Ovary (CHO) cells expressing the 751 amino acid form of APP; Mabin-Darby Canine Kidney (MDCK) cells which overexpress the 695 amino acid form of APP; Human neuroglioma (H4) cells overexpressing the 695 form of human APP. All cells were prepared by the stable introduction of a cDNA coding for human APP. All cell lines were maintained in DMEM containing 10% FBS and antibiotics.
In order to characterize the effects of cholesterol depletion, cell cultures of each cell line were cultured on six-well plates for 4 days in DMEM containing 10% FCLPDS, which lipid depleted medium reduced the external source of cholesterol, in the presence of lovastatin acid (LA) or absence of LA.
For measurement of APP processing and Aβ peptide formation, medium was removed and the cells were washed once with PBS and then incubated for 2 hours in DMEM containing 1 mCi/ml [^35S] Methionine. After this “pulse” period, the cells were either (1) lysed to measure the total labeled APPi and APPm at time zero, or (2) the cells were incubated for 2 hours in fresh, unlabeled complete medium (“chase”) and then lysed. Then the cell supernatants and lysates were treated with the appropriate antibody to calculate the amounts of APPi, APPm, APPs, and Aβ peptides.
To measure Aβ peptides, or to measure APPs, which is the secreted carboxyl-terminal truncated form, cell supernatants were incubated with antibody 6E10, which recognizes the first 15 amino acids of the Aβ peptide that correspond to the COOH-terminal amino acids of APPs . See Buxbaum, J. D., et al. (1994) Proc Natl Acad Sci USA. 91:4489-93, which is incorporated herein by reference.
The incubations with antibody 6E10 or antibody 369 were performed at 4° C. for 75 minutes followed by a 45 minute incubation at 4° C. with either agarose-linked anti-mouse IgG for antibody 6E10 or protein A sepharose for antibody 369. The beads were then washed three times for 10 minutes and then run on either a 10-20% Tris-Tricine Gel for APPs and Aβ peptides or an 8% polyacrylamide gel for cell-associated APR The gels were dried and exposed to a Phosphor Imager® screen (STORM 860, Molecular Dynamics) and exposed for a minimum of two days. The protein bands were visualized on a STORM 860 Phosphor Imager® (Molecular Dynamics) and quantitated using ImageQuant® (Molecular Dynamics). […]
To determine whether a decrease in cholesterol is associated with a change in the amount of extracellular Aβ peptides, the H4, MDCK, and CHO cells, expressing human APPm were incubated for 4 days in the presence or absence of 0.5 μM LA. […] Relative levels of extracellular Aβ peptides were determined under each condition by quantitative Phosphorlmager autoradiography. […]

[2] = system: APP processing; assay: Extracellular APPs, extracellular Aβ peptides and total APPm in CHO cells; type: cell-based, Chinese hamster (cells expressing human APP)
Description: The three cell lines utilized were: Chinese Hamster Ovary (CHO) cells expressing the 751 amino acid form of APP; Mabin-Darby Canine Kidney (MDCK) cells which overexpress the 695 amino acid form of APP; Human neuroglioma (H4) cells overexpressing the 695 form of human APP. All cells were prepared by the stable introduction of a cDNA coding for human APP. All cell lines were maintained in DMEM containing 10% FBS and antibiotics. […] After this “pulse” period, the cells were either (1) lysed to measure the total labeled APPi and APPm at time zero, or (2) the cells were incubated for 2 hours in fresh, unlabeled complete medium (“chase”) and then lysed. Then the cell supernatants and lysates were treated with the appropriate antibody to calculate the amounts of […], and Aβ peptides. To measure cell-associated, full-length APPi and APPm, or to measure carboxyl-terminal fragments of APP, cell lysates were incubated with antibody 369 which recognizes the carboxyl-terminus of APP. See Buxbaum, J. D., et al. (1990) Proc Natl Acad Sci USA 87:6003-6, which is incorporated herein by reference. […] See Buxbaum, J. D., et al. (1994) Proc Natl Acad Sci USA. 91:4489-93, which is incorporated herein by reference. The incubations with antibody 6E10 or antibody 369 were performed at 4° C. for 75 minutes followed by a 45 minute incubation at 4° C. with either agarose-linked anti-mouse IgG for antibody 6E10 or protein A sepharose for antibody 369. […] The protein bands were visualized on a STORM 860 Phosphor Imager® (Molecular Dynamics) and quantitated using ImageQuant® (Molecular Dynamics). […] Specifically, it was determined that treatment of CHO cells with 0.5 μM LA reduced the amount of extracellular APPs by about 30% of the amount calculated for the control and reduced the amount of extracellular Aβ peptides by about 70% of the amount calculated for the control when no LA was present. The amount of extracellular Aβ peptides and the amount of extracellular APPs were normalized to the amount of total APP found in the cell at the end of cell labeling as described above. […]

[3] = system: APP processing; assay: APP processing (APPs formation, APPm levels) in H4 cells; type: cell-based, human; conditions: 0.5 μM LA
Description: as §1
For measurement of APP processing and Aβ peptide formation, medium was removed and the cells were washed once with PBS and then incubated for 2 hours in DMEM containing 1 mCi/ml [^35S] Methionine. […]
The incubations with antibody 6E10 or antibody 369 were performed at 4° C. for 75 minutes followed by a 45 minute incubation at 4° C. with either agarose-linked anti-mouse IgG for antibody 6E10 or protein A sepharose for antibody 369. […] The protein bands were visualized on a STORM 860 Phosphor Imager® (Molecular Dynamics) and quantitated using ImageQuant® (Molecular Dynamics).
To determine whether cholesterol depletion affects other aspects of APP processing, H4 cells were incubated for four days in the presence or absence of 0.5 μM LA, and subjected to metabolic labeling. The levels of [^35S]-labeled APPi and APPm were determined by irnmunoprecipitation from cell lysates with an antibody against the COOH-terminal of APP, followed by quantitative autoradiography. […]

[4] = CHO cells, 0.5 μM LA, normalized to total APP

CC[C@H](C)C(=O)O[C@H]1C[C@@H](C)C=C2C=C[C@H](C)[C@H](CC[C@@H](O)C[C@@H](O)CC(=O)O)[C@H]21 [LA, lovastatin acid]
decrease in amounts of extracellular Aβ peptides as compared to the untreated cells ([1]; 0.5 μM LA, 4 days, lipid depleted medium, H4, MDCK and CHO cells): 40-60% | LA concentration sufficient to significantly (p<0.001) decrease the amount of extracellular Aβ peptides ([1]; each cell type, various concentrations of LA): ≥ 0.05 µM | levels of intracellular Aβ peptides in cell lysates ([1]; presence of 0.5 μM LA): No detectable levels | reduction of extracellular Aβ peptide levels (weaker effect) ([1]; printed as 0.5 μM LA): < 20% | level of total APPm ([2]; CHO cells treated with 0.5 μM LA (control 3.2×10^6)): 3.4×10^6 arbitrary units | reduction of the amount of extracellular APPs relative to control [2, 4]: about 30% | reduction of the amount of extracellular Aβ peptides relative to control [2, 4]: about 70% | effects on maturation, levels of [35S]-labeled APPm (FIG. 6) [3]: not sufficient to account for the decrease in Aβ peptide levels | [35S]-labeled APPs formation as compared to control cells (FIG. 5) ([3]; H4 cells, four days): modest decrease
